Experimental data: patent US20230085307A1, “PYRIDAZINONE COMPOUND AND HERBICIDE” (NISSAN CHEMICAL CORPORATION, priority 2019, published 2023)

How the values were obtained:
windgrass = experiment: Test Example 5: herbicidal effect by foliage application, plastic box (Table 20, symbol L); assay type: in vivo, windgrass (Apera spica-venti); settings: foliage application
In short: (§1)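 Plants were sown into sterilized diluvial soil under about 1.5 cm cover and kept in a greenhouse at 25° C. to 30° C. Fourteen days on, foliage received an even spray of the diluted emulsion. Herbicidal or crop effect was judged three weeks afterwards.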

wild oat = experiment: Test Example 5: herbicidal effect by foliage application, plastic box (Table 20, symbol I); assay type: in vivo, wild oat (Avena fatua); settings: foliage application
In short: as §1

false cleavers = experiment: Test Example 5: herbicidal effect by foliage application, plastic box (Table 20, symbol Q); assay type: in vivo, false cleavers (Galium spurium); settings: foliage application
In short: as §1

persian speedwell = experiment: Test Example 5: herbicidal effect by foliage application, plastic box (Table 20, symbol R); assay type: in vivo, Persian speedwell (Veronica persica); settings: foliage application
In short: as §1

lambsquarters = experiment: Test Example 5: herbicidal effect by foliage application, plastic box (Table 20, symbol O); assay type: in vivo, lambsquarters (Chenopodium album); settings: foliage application
In short: as §1

Italian ryegrass = experiment: Test Example 5: herbicidal effect by foliage application, plastic box (Table 20, symbol K); assay type: in vivo, Italian ryegrass (Lolium multiflorum); settings: foliage application
In short: as §1

chickweed = experiment: Test Example 5: herbicidal effect by foliage application, plastic box (Table 20, symbol P); assay type: in vivo, common chickweed (Stellaria media); settings: foliage application
In short: as §1

redroot pigweed = experiment: Test Example 5: herbicidal effect by foliage application, plastic box (Table 20, symbol N); assay type: in vivo, redroot pigweed (Amaranthus retroflexus); settings: foliage application
In short: as §1

oval-leafed pondweed = experiment: Test Example 1: herbicidal activity, application before weed generation under submerged conditions (Table 16, symbol C); assay type: in vivo, oval-leafed pondweed (Monochoria vaginalis); settings: 320 g/ha applied herbicide
In short: (§2)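 Submerged Wagner pots (alluvial soil, 4 cm water) sown with weed seeds and planted with 2.5-leaf rice seedlings; emulsifiable concentrate diluted in water applied to water surface on sowing day. Held in greenhouse at 25-30 °C; injury scored 0-5 by herbicidal rate after three weeks.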

late watergrass = experiment: Test Example 1: herbicidal activity, application before weed generation under submerged conditions (Table 16, symbol A); assay type: in vivo, late watergrass (Echinochloa oryzicola); settings: 320 g/ha applied herbicide
In short: as §2

barnyard grass [1] = experiment: Test Example 5: herbicidal effect by foliage application, plastic box (Table 20, symbol H); assay type: in vivo, barnyard grass (Echinochloa crus-galli); settings: foliage application
In short: as §1

blackgrass = experiment: Test Example 5: herbicidal effect by foliage application, plastic box (Table 20, symbol J); assay type: in vivo, blackgrass (Alopecurus myosuroides); settings: foliage application
In short: as §1

Japanese bulrush = experiment: Test Example 1: herbicidal activity, application before weed generation under submerged conditions (Table 16, symbol B); assay type: in vivo, Japanese bulrush (Schoenoplectus juncoides); settings: 320 g/ha applied herbicide
In short: as §2

southern crabgrass = experiment: Test Example 5: herbicidal effect by foliage application, plastic box (Table 20, symbol F); assay type: in vivo, southern crabgrass (Digitaria ciliaris); settings: foliage application
In short: as §1

green foxtail = experiment: Test Example 5: herbicidal effect by foliage application, plastic box (Table 20, symbol G); assay type: in vivo, green foxtail (Setaria viridis); settings: foliage application
In short: as §1

velvetleaf = experiment: Test Example 5: herbicidal effect by foliage application, plastic box (Table 20, symbol M); assay type: in vivo, velvetleaf (Abutilon theophrasti); settings: foliage application
In short: as §1

barnyard grass [2] = experiment: Test Example 3: herbicidal effect by foliage application, Wagner pot (Table 18, symbol H); assay type: in vivo, barnyard grass (Echinochloa crus-galli)
In short: (§3)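 Plants were sown in alluvial soil held under 0.1–0.5 cm standing water and grown 14 days in a greenhouse at 25–30 °C. An emulsifiable formulation, water-diluted to the set dose, was then sprayed onto the foliage, and effects were scored three weeks later using previously defined criteria.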

Chinese sprangletop = experiment: Test Example 3: herbicidal effect by foliage application, Wagner pot (Table 18, symbol D); assay type: in vivo, chinese sprangletop (Leptochloa chinensis)
In short: as §3

rice flat sedge = experiment: Test Example 3: herbicidal effect by foliage application, Wagner pot (Table 18, symbol E); assay type: in vivo, rice flat sedge (Cyperus iria)
In short: as §3

[3] = 320 g/ha, three weeks after application
[4] = AAH 320 g/ha, three weeks after application
[5] = AAH 320 g/ha, evaluated three weeks after application
[6] = amount of applied herbicide 320 g/ha

CCCCCCOc1ccc(-c2sc3ccccc3c2-c2c(OC(=O)CCC)c(C)nn(C)c2=O)cc1 [1-029]
herbicidal effect grade, L: windgrass (windgrass; [3]): 0 (Herbicidal rate of 5% or less (almost no effect))
herbicidal effect grade, I: wild oat (wild oat; [3]): 0 (Herbicidal rate of 5% or less (almost no effect))
herbicidal effect grade, Q: false cleavers (false cleavers; [3]): 1 (Herbicidal rate of 5% or more and less than 20%)
herbicidal effect grade, R: persian speedwell (persian speedwell; [3]): 0 (Herbicidal rate of 5% or less (almost no effect))
herbicidal effect grade, O: lambsquarters (lambsquarters; [3]): 2 (Herbicidal rate of 20% or more and less than 40%)
herbicidal effect grade, K: Italian ryegrass (Italian ryegrass; [3]): 0 (Herbicidal rate of 5% or less (almost no effect))
herbicidal effect grade, P: chickweed (chickweed; [3]): 5 (Herbicidal rate of 90% or more (almost completely withered))
herbicidal effect grade, N: redroot pigweed (redroot pigweed; [3]): 4 (Herbicidal rate of 70% or more and less than 90%)
Herbicidal effect on C: oval-leafed pondweed (grade 0-5) (oval-leafed pondweed): 2 (Herbicidal rate of 20% or more and less than 40%)
Herbicidal effect on A: late watergrass (grade 0-5) (late watergrass): 0 (Herbicidal rate of 5% or less (almost no effect))
herbicidal effect grade, H: barnyard grass (barnyard grass [1]; [3]): 0 (Herbicidal rate of 5% or less (almost no effect))
herbicidal effect grade, J: blackgrass (blackgrass; [3]): 0 (Herbicidal rate of 5% or less (almost no effect))
Herbicidal effect on B: Japanese bulrush (grade 0-5) (Japanese bulrush): 1 (Herbicidal rate of 5% or more and less than 20%)
herbicidal effect grade, F: southern crabgrass (southern crabgrass; [3]): 0 (Herbicidal rate of 5% or less (almost no effect))
herbicidal effect grade, G: green foxtail (green foxtail; [3]): 0 (Herbicidal rate of 5% or less (almost no effect))
herbicidal effect grade, M: velvetleaf (velvetleaf; [3]): 2 (Herbicidal rate of 20% or more and less than 40%)

Cc1ccccc1C(=O)Oc1c(C)nn(C)c(=O)c1-c1c(-c2ccc3c(c2)OCCO3)sc2ccccc12 [1-093]
L: windgrass, herbicidal effect (windgrass; [4]): 0 (Herbicidal rate of 5% or less (almost no effect))
herbicidal effect on H (barnyard grass), rating 0-5 (barnyard grass [2]; 320 g/ha): 3 (Herbicidal rate of 40% or more and less than 70%)
I: wild oat, herbicidal effect (wild oat; [4]): 0 (Herbicidal rate of 5% or less (almost no effect))
Q: false cleavers, herbicidal effect (false cleavers; [4]): 0 (Herbicidal rate of 5% or less (almost no effect))
R: persian speedwell, herbicidal effect (persian speedwell; [4]): 4 (Herbicidal rate of 70% or more and less than 90%)
O: lambsquarters, herbicidal effect (lambsquarters; [4]): 2 (Herbicidal rate of 20% or more and less than 40%)
K: Italian ryegrass, herbicidal effect (Italian ryegrass; [4]): 0 (Herbicidal rate of 5% or less (almost no effect))
P: chickweed, herbicidal effect (chickweed; [4]): 1 (Herbicidal rate of 5% or more and less than 20%)
N: redroot pigweed, herbicidal effect (redroot pigweed; [4]): 3 (Herbicidal rate of 40% or more and less than 70%)
Herbicidal effect on C: oval-leafed pondweed (grade 0-5) (oval-leafed pondweed): 0 (Herbicidal rate of 5% or less (almost no effect))
herbicidal effect on D (Chinese sprangletop), rating 0-5 (Chinese sprangletop; 320 g/ha): 0 (Herbicidal rate of 5% or less (almost no effect))
Herbicidal effect on A: late watergrass (grade 0-5) (late watergrass): 3 (Herbicidal rate of 40% or more and less than 70%)
H: barnyard grass, herbicidal effect (barnyard grass [1]; [4]): 0 (Herbicidal rate of 5% or less (almost no effect))
J: blackgrass, herbicidal effect (blackgrass; [4]): 0 (Herbicidal rate of 5% or less (almost no effect))
Herbicidal effect on B: Japanese bulrush (grade 0-5) (Japanese bulrush): 1 (Herbicidal rate of 5% or more and less than 20%)
herbicidal effect on E (rice flat sedge), rating 0-5 (rice flat sedge; 320 g/ha): 5 (Herbicidal rate of 90% or more (almost completely withered))
F: southern crabgrass, herbicidal effect (southern crabgrass; [4]): 0 (Herbicidal rate of 5% or less (almost no effect))
G: green foxtail, herbicidal effect (green foxtail; [4]): 0 (Herbicidal rate of 5% or less (almost no effect))
M: velvetleaf, herbicidal effect (velvetleaf; [4]): 5 (Herbicidal rate of 90% or more (almost completely withered))

C=CCOc1cccc(-c2sc3ccc(F)cc3c2-c2c(O)c(C)nn(C)c2=O)c1 [2-269]
L: windgrass, herbicidal effect (criteria 0-5) (windgrass; [5]): 0 (Herbicidal rate of 5% or less (almost no effect))
herbicidal effect on H: barnyard grass (barnyard grass [2]; [6]): 3 (Herbicidal rate of 40% or more and less than 70%)
I: wild oat, herbicidal effect (criteria 0-5) (wild oat; [5]): 0 (Herbicidal rate of 5% or less (almost no effect))
Q: false cleavers, herbicidal effect (criteria 0-5) (false cleavers; [5]): 0 (Herbicidal rate of 5% or less (almost no effect))
R: persian speedwell, herbicidal effect (criteria 0-5) (persian speedwell; [5]): 1 (Herbicidal rate of 5% or more and less than 20%)
O: lambsquarters, herbicidal effect (criteria 0-5) (lambsquarters; [5]): 0 (Herbicidal rate of 5% or less (almost no effect))
K: Italian ryegrass, herbicidal effect (criteria 0-5) (Italian ryegrass; [5]): 0 (Herbicidal rate of 5% or less (almost no effect))
P: chickweed, herbicidal effect (criteria 0-5) (chickweed; [5]): 3 (Herbicidal rate of 40% or more and less than 70%)
N: redroot pigweed, herbicidal effect (criteria 0-5) (redroot pigweed; [5]): 0 (Herbicidal rate of 5% or less (almost no effect))
Herbicidal effect on C: oval-leafed pondweed (grade 0-5) (oval-leafed pondweed): 3 (Herbicidal rate of 40% or more and less than 70%)
herbicidal effect on D: Chinese sprangletop (Chinese sprangletop; [6]): 0 (Herbicidal rate of 5% or less (almost no effect))
Herbicidal effect on A: late watergrass (grade 0-5) (late watergrass): 3 (Herbicidal rate of 40% or more and less than 70%)
H: barnyard grass, herbicidal effect (criteria 0-5) (barnyard grass [1]; [5]): 0 (Herbicidal rate of 5% or less (almost no effect))
J: blackgrass, herbicidal effect (criteria 0-5) (blackgrass; [5]): 0 (Herbicidal rate of 5% or less (almost no effect))
Herbicidal effect on B: Japanese bulrush (grade 0-5) (Japanese bulrush): 3 (Herbicidal rate of 40% or more and less than 70%)
herbicidal effect on E: rice flat sedge (rice flat sedge; [6]): 3 (Herbicidal rate of 40% or more and less than 70%)
F: southern crabgrass, herbicidal effect (criteria 0-5) (southern crabgrass; [5]): 0 (Herbicidal rate of 5% or less (almost no effect))
G: green foxtail, herbicidal effect (criteria 0-5) (green foxtail; [5]): 0 (Herbicidal rate of 5% or less (almost no effect))
M: velvetleaf, herbicidal effect (criteria 0-5) (velvetleaf; [5]): 0 (Herbicidal rate of 5% or less (almost no effect))
